From ChEMBL document CHEMBL6078624, “Structure-based discovery of a 4,5-Dihydropyrazole-cored PET ligand for imaging of receptor-interacting serine/threonine-protein kinase 1 (RIPK1) in the brain” (Eur J Med Chem, 2024)

Assays:
[1] = Drug uptake in macaque brain measured at 5 mins by micro-PET imaging analysis; format: ADME, tissue-based; conditions: macaca, in vivo
[2] = Inhibition of TSZ-induced necroptosis in human HT-29 cells by CellTiter-Glo luminescent cell viability assay
HT-29 = test: Anti-necroptotic activity against TNF induced human HT-29 cells assessed as cell viability incubated for 48 hrs by Cell Titer-Glo luminescent cell viability assay; format: functional, cell-based; conditions: HT-29, 48 h
L929 = test: Anti-necroptotic activity against TNF induced mouse L929 cells assessed as cell viability incubated for 24 hrs by Cell Titer-Glo luminescent cell viability assay; format: functional, cell-based; conditions: L929, 24 h

Structure (SMILES) | EC50 [2] [nM] | further results
CC(C)(C)C(=O)N1N=CC[C@H]1c1cccc([11CH3])c1 |  | SUVmax [1]: ~ 3.7
O=C(c1ccccn1)N1CCC(C(=O)N2N=CCC2c2cc(F)cc(F)c2)CC1 (stereo unspecified) | 47.7 | 
Cc1ncc(-c2ccc3nc(N[11C](C)=O)sc3c2)cc1NC(=O)CC1CCCCC1 |  | IC50 (HT-29): 23 nM; IC50 (L929): 13 nM
Cc1ccc(C2CC=NN2C(=O)C2CCN(C(=O)c3cccc(F)n3)CC2)cc1F (stereo unspecified) | 19.9 | 
O=C(c1ccccn1)N1CCC(C(=O)N2N=CCC2c2cccc(F)c2)CC1 (stereo unspecified) | 68.2 | 
